Patent US6852761B2, “Polycyclic aryl and heteroaryl substituted benzenes useful for selective inhibition of the coagulation cascade” (Pharmacia Corporation, priority 2000, dated 2005)

Assays:
[1] = target: T1, recombinant soluble tissue factor and recombinant human factor VIIa (TF-VIIA) (Homo sapiens, UniProt P08709); test: TF-VIIa Assay; format: biochemical
T1 construct: conversion of coagulation factor VII to VIIa by Xa; purchased American Diagnostica, Greenwich Conn; (factor VIIa); host or cells: soluble TF made in house in E. coli
T1 sequence (P08709 213-466 limits assumed): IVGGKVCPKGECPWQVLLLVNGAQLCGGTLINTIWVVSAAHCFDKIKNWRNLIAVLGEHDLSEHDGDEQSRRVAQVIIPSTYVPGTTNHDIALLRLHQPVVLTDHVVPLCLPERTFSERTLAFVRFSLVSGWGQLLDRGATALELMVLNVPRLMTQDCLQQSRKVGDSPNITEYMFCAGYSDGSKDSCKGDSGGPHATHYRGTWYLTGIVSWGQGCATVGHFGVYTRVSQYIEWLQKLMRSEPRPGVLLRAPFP
T1 sequence (P08709 61-212 limits assumed): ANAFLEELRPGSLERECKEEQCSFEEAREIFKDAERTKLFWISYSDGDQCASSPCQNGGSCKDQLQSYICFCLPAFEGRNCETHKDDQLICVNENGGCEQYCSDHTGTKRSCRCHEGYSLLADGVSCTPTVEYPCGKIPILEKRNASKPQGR
T1 sequence (P13726 33-251 partner limits assumed): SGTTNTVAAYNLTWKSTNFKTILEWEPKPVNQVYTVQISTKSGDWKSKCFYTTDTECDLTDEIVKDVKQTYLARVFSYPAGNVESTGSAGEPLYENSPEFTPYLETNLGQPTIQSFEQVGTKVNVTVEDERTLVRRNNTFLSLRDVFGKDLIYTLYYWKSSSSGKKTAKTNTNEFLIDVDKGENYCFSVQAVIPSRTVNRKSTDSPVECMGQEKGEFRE
Experimental: In this assay 100 nM recombinant soluble tissue factor and 2 nM recombinant human factor VIIa are added to a 96-well assay plate containing 0.4 mM of the substrate, N-Methylsulfonyl-D-phe-gly-arg-p-nitroaniline and either inhibitor or buffer (5 mM CaCl2,50 mM Tris-HCl, pH 8.0, 100 mM NaCl, 0.1% BSA). The reaction, in a final volume of 100 ul is measured immediately at 405 nm to determine background absorbance. The plate is incubated at room temperature for 60 min, at which time the rate of hydrolysis of the substrate is measured by monitoring the reaction at 405 nm for the release of p-nitroaniline. Percent inhibition of TF-VIIa activity is calculated from OD405nm value from the experimental and control sample.

[2] = target: T2, human factor Xa (Homo sapiens, UniProt P00742); test: Xa Assay; format: biochemical
T2 construct: leads from XII to XIIa to XIa to IXa and to the conversion of X to Xa; purchased Enzyme Research Laboratories, South Bend Ind
T2 sequence (P00742 235-488 limits assumed): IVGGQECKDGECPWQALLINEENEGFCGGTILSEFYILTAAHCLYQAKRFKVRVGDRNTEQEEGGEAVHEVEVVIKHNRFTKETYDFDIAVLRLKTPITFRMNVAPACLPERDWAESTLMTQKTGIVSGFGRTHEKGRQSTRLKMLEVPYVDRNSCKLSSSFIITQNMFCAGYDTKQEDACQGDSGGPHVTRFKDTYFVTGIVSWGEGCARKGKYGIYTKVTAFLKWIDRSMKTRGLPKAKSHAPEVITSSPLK
T2 sequence (P00742 41-179 limits assumed): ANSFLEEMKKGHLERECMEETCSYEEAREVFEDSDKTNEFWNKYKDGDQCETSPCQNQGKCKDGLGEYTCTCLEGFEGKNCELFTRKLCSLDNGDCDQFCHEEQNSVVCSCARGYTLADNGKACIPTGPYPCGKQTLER
Experimental: 0.3 nM human factor Xa and 0.15 mM N-α-Benzyloxycarbonyl-D-arginyl-L-glycyl-L-arginine-p-nitroaniline-dihydrochloride (S-2765) are added to a 96-well assay plate containing either inhibitor or buffer (50 mM Tris-HCl, pH 8.0, 100 mM NaCl, 0.1% BSA). The reaction, in a final volume of 100 ul is measured immediately at 405 nm to determine background absorbance. The plate is incubated at room temperature for 60 min, at which time the rate of hydrolysis of the substrate is measured by monitoring the reaction at 405 nm for the release of p-nitroaniline. Percent inhibition of Xa activity is calculated from OD405 nm value from the experimental and control sample.
Recombinant soluble TF, consisting of amino acids 1-219 of the mature protein sequence was expressed in E. coli and purified using a Mono Q Sepharose FPLC. Recombinant human VIIa was purchased from American Diagnostica, Greenwich Conn. and chromogenic substrate N-Methylsulfonyl-D-phe-gly-arg-p-nitroaniline was prepared by American Peptide Company, Inc., Sunnyvale, Calif. Factor Xa was obtained from Enzyme Research Laboratories, South Bend Ind., thrombin from Calbiochem, La Jolla, Calif., and trypsin and L-BAPNA from Sigma, St. Louis Mo. The chromogenic substrates S-2765 and S-2238 were purchased from Chromogenix, Sweden.

SMILES | IC50 [1] | IC50 [2]
O=C(NCC1CCNCC1)c1cc(NS(=O)(=O)Cc2ccccc2)ccc1Sc1ccccc1 [Example 1] | > 30 µM | –
CN(C)c1ccc(CNC(=O)c2cc(NS(=O)(=O)Cc3ccccc3)ccc2Sc2ccccc2)cc1 [Example 2] | > 30 µM | > 30 µM
O=C(NCc1ccncc1)c1cc(NS(=O)(=O)Cc2ccccc2)ccc1Sc1ccccc1 [Example 3] | > 30 µM | > 30 µM
N=C(N)c1ccc(CNC(=O)c2cc(NS(=O)(=O)Cc3ccccc3)ccc2Sc2ccccc2)cc1 [Example 4] | > 30 µM | > 30 µM
O=C(Cc1c(F)ccc(NS(=O)(=O)Cc2ccccc2)c1F)NCC1CCNCC1 [Example 9] | > 30 µM | > 30 µM
CN(C)c1ccc(CNC(=O)Cc2c(F)ccc(NS(=O)(=O)Cc3ccccc3)c2F)cc1 [Example 10] | > 30 µM | –
O=C(Cc1c(F)ccc(NS(=O)(=O)Cc2ccccc2)c1F)NCc1ccncc1 [Example 11] | > 30 µM | –
O=C(Cc1c(F)ccc(NS(=O)(=O)Cc2ccccc2)c1F)NCCCn1ccnc1 [Example 12] | > 30 µM | > 30 µM
N=C(N)c1cccc(CNC(=O)Cc2c(F)ccc(NS(=O)(=O)Cc3ccccc3)c2F)c1 [Example 13] | > 30 µM | –
N=C(N)c1ccc(CNC(=O)Cc2c(F)ccc(NS(=O)(=O)Cc3ccccc3)c2F)cc1 [Example 14] | > 30 µM | > 30 µM
N=C(N)NCCCCCNC(=O)Cc1c(F)ccc(NS(=O)(=O)Cc2ccccc2)c1F [Example 15] | > 30 µM | > 30 µM
N=C(N)c1ccc(CNC(=O)Cc2c(-c3ccccc3)ccc(NCCc3ccccc3)c2F)cc1 [Example 17] | – | > 30 µM
N=C(N)c1ccc(CNC(=O)Cc2c(-c3ccccc3)ccc(NCCc3ccccc3)c2O)cc1 [Example 19] | – | > 30 µM
COc1c(NC(C)C)ccc(-c2ccccc2)c1CC(=O)NCc1ccc(C(=N)N)cc1 [Example 22] | – | > 30 µM
